# Patent US20060183773A1, “Uses of methylphenidate derivatives” (priority 2005, published 2006)
# Like-named read-outs stand apart in the source and are kept apart here.
# Legend:
# PI3kinaseP85 = test: Custom AntibodyArray, TRiPS cells: PI3kinaseP85; format: cell-based, human; settings: 15 μg/ml, 30 minutes
# Procedure: (§1) Day 18 TRiPS cells, 1×10^6, were incubated for 30 minutes at 37° C., either with nothing added (“Nil”), with 1 μl CD3/CD28 Dynabeads (Dynal, Oslo, Norway) (“CD3/CD28 beads”) per 100,000 cells, or with CD3/CD28 beads and 15 μg/ml of the compound of formula II (Cpd II). After the incubation, the cells were lysed in Cell-Lytic Mammalian Cell Extraction Reagent (Sigma). After centrifugation to pellet cellular debris, the supernatants (cell extracts) were obtained.
# (§2) The cell extracts (supernatants) were then analyzed using a Custom AntibodyArray™ manufactured by Hypromatrix Inc., Worcester, Mass., following the manufacturer's instructions. The Custom AntibodyArray™ is a nylon membrane blotted with antibodies to the proteins listed below. Briefly, the cell extracts were incubated with duplicate Custom AntibodyArray™'s for 2 hours at room temperature with slow shaking, followed by three washes with Tris buffer (150 mM NaCl, 25 mM Tris, 0.05% Tween-20, pH 7.5). HRP-labeled antibodies specific for phosphorylated-tyrosine, phosphorylated-serine and phosphorylated-threonine in Tris buffer were added, and the arrays incubated for 2 hours. After three more washes with Tris buffer, a peroxidase-reactive luminescent substrate was added. The arrays were visualized by exposure to X-ray film. Densitometry of the X-ray films was measured by scanning and computer analysis.
# VAV = test: Custom AntibodyArray, TRiPS cells: VAV; format: cell-based, human; settings: 15 μg/ml, 30 minutes
# Procedure: as §1, §2
# 14-3-3 = test: Custom AntibodyArray, TRiPS cells: 14-3-3; format: cell-based, human; settings: 15 μg/ml, 30 minutes
# Procedure: as §1, §2
# IkB-ε = test: Custom AntibodyArray, TRiPS cells: IkB-ε; format: cell-based, human; settings: 15 μg/ml, 30 minutes
# Procedure: as §1, §2
# JNK2 = test: Custom AntibodyArray, TRiPS cells: JNK2; format: cell-based, human; settings: 15 μg/ml, 30 minutes
# Procedure: as §1, §2
# [1] = system: MC/9 murine fibroblast cell line; test: MC/9 cell proliferation, Promega cell titer assay; format: cell-based; settings: 72 hours
# Procedure: Cells of the MC/9 murine […] cell line (obtained from ATCC, catalog no. CRL-8305) were placed into the wells of a 96-well tissue culture plate at 25,000 cells/well. The culture medium was Delbecco's Modified Eagle's Medium (DMEM) (obtained from Cambrex) containing 10% fetal calf serum (FCS) (obtained from ATCC). Nil control wells contained no additives. The remaining wells contained either 25 ng/ml murine nerve growth factor (NGF) (obtained from Upstate Biotechnology, Lake Placid, NY) or 25 ng/ml NGF and 5% TSTIM (a culture supplement prepared from rats and containing concanavalin A which was obtained from BD Biosciences). […] After 72 hours of culture at 37° C. and 5% CO2, cell proliferation was evaluated by the Promega cell titer assay as described in Example 1.
# IL-8 = IL-8 release from LPS-stimulated THP-1 monocytes, ELISA; format: cell-based, human; settings: for inhibition at 15 µg/mL: Homo sapiens, read-out: % Inhibition (IL-8)
# Procedure: (§3) THP-1 is a monocyte cell line obtained from American Type Culture Collection (ATCC) (catalog no. TIB-202). […] After 1 hour, lipopolysaccharide (LPS) (obtained from Sigma) was added to the cultures to give a final concentration of 200 ng/ml, and the cells were then incubated for an additional 4 hours or for an additional 24 hours. After the incubation, the cells were centrifuged, and the supernatants were collected. The concentrations of IL-8 and TNFα in the supernatants were determined by ELISA.
# The concentrations of IL-8 in the supernatants were determined by ELISA performed as described in Example 4.
# JNK3 = test: Custom AntibodyArray, TRiPS cells: JNK3; format: cell-based, human; settings: 15 μg/ml, 30 minutes
# Procedure: as §1, §2
# TNFα = TNFα release from LPS-stimulated THP-1 monocytes, ELISA; format: cell-based, human; settings: THP-1, LPS 200 ng/ml, Cpd II 15 μg/ml, Dex 10 μM
# Procedure: as §3
# The TNFα ELISA was performed as described in Example 2.
# IkB-r = test: Custom AntibodyArray, TRiPS cells: IkB-r; format: cell-based, human; settings: 15 μg/ml, 30 minutes
# Procedure: as §1, §2
# RAS = RAS activation pulldown assay in TRiPS cells; format: cell-based, human; settings: CD3/CD28 beads + 15 μg/ml
# Procedure: (§4) Day 10 TRiPS cells, 1×10^6, were incubated with 15 μg/ml of the compound of formula II (Cpd II) for 1 hour at 37° C. Then, the cells were incubated with CD3/CD28 beads (1 μl per 100,000 cells) (obtained from Dynal) for 10 minutes at 37° C. The cells were then lysed with a mild buffer (supplied with Pierce EZ-Detect activation kit described below) to produce cell extracts. Protein concentrations of the resulting extracts were determined by bicinchoninic acid (BCA) assay (Pierce) and placed on ice for immediate use.
# (§5) Pulldown assays were performed using Pierce EZ-Detect activation kits according to the manufacturer's instructions utilizing GST-RAF-1-RBD and GST-RalGDS-RBD for RAS and RAP-1 respectively. Briefly, 400 μg total protein from each extract was combined with recombinant protein and glutathione resin and incubated at 4° C. for one hour with gentle shaking. The resin was then washed to remove unbound protein and the activated RAS and RAP-1 proteins were removed by boiling in the presence of SDS-PAGE loading dye containing reducing agent. RAS and RAP-1 western blots were performed to visualize the proteins using antibodies supplied with the kit. Densitometry of the X-ray films was done by scanning and computer analysis.
# MEKK1 = test: Custom AntibodyArray, TRiPS cells: MEKK1; format: cell-based, human; settings: 15 μg/ml, 30 minutes
# Procedure: as §1, §2
# IkB-α = test: Custom AntibodyArray, TRiPS cells: IkB-α; format: cell-based, human; settings: 15 μg/ml, 30 minutes
# Procedure: as §1, §2
# RAP-1 = RAP-1 activation pulldown assay in TRiPS cells; format: cell-based, human; settings: CD3/CD28 beads + 15 μg/ml
# Procedure: as §4, §5
compound,measurement,setting,value
COC(=O)C(c1ccc(-c2ccccc2)cc1)C1CCCCN1 (stereo not drawn) [Cpd II],Effect of Cpd II on the protein in CD3/CD28 stimulated TRiPS cells,PI3kinaseP85,Activated
same,Effect of Cpd II on the protein in CD3/CD28 stimulated TRiPS cells,VAV,No effect
same,Effect of Cpd II on the protein in CD3/CD28 stimulated TRiPS cells,14-3-3,Slightly decreased the level
same,Effect of Cpd II on the protein in CD3/CD28 stimulated TRiPS cells,IkB-ε,Slightly decreased the level
same,Effect of Cpd II on the protein in CD3/CD28 stimulated TRiPS cells,JNK2,Decreased level back to basal levels (Nil control)
same,Mean OD 530 nm,"[1]; MC/9, NGF 25 ng/ml + 1 μg/ml, NGF + water 0.101",0.117 ± 0.015
same,Mean OD 530 nm,"[1]; MC/9, NGF 25 ng/ml + 5 μg/ml, NGF + water 0.101",0.108 ± 0.012
same,Mean OD 530 nm,"[1]; MC/9, NGF 25 ng/ml + 15 μg/ml, NGF + water 0.101",0.049 ± 0.016
same,Mean OD 530 nm,"[1]; MC/9, NGF + TSTIM + 1 μg/ml, NGF + TSTIM + water 0.365",0.428 ± 0.027
same,Mean OD 530 nm,"[1]; MC/9, NGF + TSTIM + 5 μg/ml, NGF + TSTIM + water 0.365",0.373 ± 0.016
same,Mean OD 530 nm,"[1]; MC/9, NGF + TSTIM + 15 μg/ml, NGF + TSTIM + water 0.365",0.326 ± 0.024
same,inhibition at 15 µg/mL,"IL-8; THP-1, 4 h",23%
same,inhibition at 15 µg/mL,"IL-8; THP-1, 24 h",33%
same,Mean IL-8 Concentration,"IL-8; THP-1, LPS 200 ng/ml, 4 hours, Cpd II 15 μg/ml, Dex 10 μM, LPS alone 2844.60",2185.00 ± 78.30 pg/mL
same,Mean IL-8 Concentration,"IL-8; THP-1, LPS 200 ng/ml, 24 hours, Cpd II 15 μg/ml, Dex 10 μM, LPS alone 6653.20",4490.20 ± 264.46 pg/mL
same,release of IL-8 from LPS-stimulated monocytes (in words),"IL-8; THP-1, LPS 200 ng/ml, Cpd II 15 μg/ml, Dex 10 μM",significantly inhibited the release of IL-8
same,Effect of Cpd II on the protein in CD3/CD28 stimulated TRiPS cells,JNK3,Decreased level back to basal levels (Nil control)
same,inhibition at 15 µg/mL,"TNFα; Homo sapiens, 24 hours",53%
same,Mean TNFα Concentration,"TNFα; 24 hours, LPS alone 138.655",65.370 ± 0.891 pg/mL
same,release of TNFα from LPS-stimulated monocytes (in words),TNFα,significantly inhibited the release of TNFα
same,Effect of Cpd II on the protein in CD3/CD28 stimulated TRiPS cells,IkB-r,Decreased level back to basal levels (Nil control)
same,inhibition of RAS protein (in words),RAS,very strong inhibition of RAS protein
same,Integrated Optical Density for RAS assay,"RAS; no treatment 66.83, beads only 245.91",84.98
same,Effect of Cpd II on the protein in CD3/CD28 stimulated TRiPS cells,MEKK1,Decreased level back to basal levels (Nil control)
same,Effect of Cpd II on the protein in CD3/CD28 stimulated TRiPS cells,IkB-α,Slightly decreased the level
same,inhibition of RAP-1 (in words),RAP-1,appeared to inhibit RAP-1
same,Integrated Optical Density for RAP-1 assay,"RAP-1; no treatment 259.27, beads only 213.66",87.26
